Structures can show the parent of a compound that is named as a salt.
Experiments:
[1] = test system: ZIKV (MR766 strain); assay: Vero cell re-infection assay (infectious ZIKV in hNPC supernatant); type: cell-based, Zika virus; conditions: supernatant of hNPC cultures, 72 h after infection
Description: (A) Scheme of high content chemical screen. (B) Chemical structure of hit compounds. (C) Inhibitory curve and IC50 of HH or AQ on hNPCs (n=6). (D-H) Immunocytochemistry analysis (D), the quantification of the infection rate (E), the quantification of proliferation rate (F), the quantification of cell apoptosis rate (G) and the normalized cell viability (H) of hNPCs at 72 h after ZIKV (MR 766 strain) infection with or without drug treatment. Scale bars, 100 μm. The ZIKV infection rate is defined as the percentage of ZIKV E^+ cells. The proliferation rate is defined as the percentages of Ki67^+ cells. The cell apoptosis rate was defined as the percentage of cleaved-Caspase 3/CAS3^+ cells. The normalized cell viability was calculated by dividing the total cell number of each condition by the total cell number under mock infection conditions. (n=6). […] (K) Quantification of ZIKV infectious particles produced by ZIKV-infected hNPCs with or without compound treatment by the Vero cell reinfection assay. […] (M and N) Immunocytochemistry analysis (M) and quantification of the infection rate (N) of hNPCs at 72 h after ZIKV (PRVABC59 strain) infection with or without drug treatment (n=6). Scale bars, 100 μm. p values were calculated by one-way repeated measures ANOVA with a Bonferroni test for multiple comparisons. *p<0.05, **p<0.01 and ***p<0.001. […]

[2] = test system: hNPCs; assay: hNPC viability, proliferation, apoptosis and identity; type: cell-based, human; conditions: for ZIKV induced growth arrest or apoptosis of hNPCs: 72 h after ZIKV (MR766) infection, vs DMSO
Description: (A) Scheme of high content chemical screen. (B) Chemical structure of hit compounds. (C) Inhibitory curve and IC50 of HH or AQ on hNPCs (n=6). (D-H) Immunocytochemistry analysis (D), the quantification of the infection rate (E), the quantification of proliferation rate (F), the quantification of cell apoptosis rate (G) and the normalized cell viability (H) of hNPCs at 72 h after ZIKV (MR 766 strain) infection with or without drug treatment. Scale bars, 100 μm. The ZIKV infection rate is defined as the percentage of ZIKV E^+ cells. The proliferation rate is defined as the percentages of Ki67^+ cells. The cell apoptosis rate was defined as the percentage of cleaved-Caspase 3/CAS3^+ cells. The normalized cell viability was calculated by dividing the total cell number of each condition by the total cell number under mock infection conditions. (n=6). (I) qRT-PCR analysis to monitor the total ZIKV vRNA in the supernatant of hNPC cultures at 72 h after ZIKV infection with or without drug treatment. (J) Vero cell reinfection assay to monitor the ZIKV infectious particles in the supernatant of hNPC cultures with or without drug treatment. To perform the Vero cell reinfection assay, hNPCs at 72 h after ZIKV infection were washed three times and changed to drug free medium for an additional 24 h. Vero cells were infected with the supernatant collected from hNPCs for 2 h and changed to virus free medium for an additional 24 h. Vero cells were stained with antibody against ZIKV E and DAPI. Scale bars, 200 μm. (n=3). (K) Quantification of ZIKV infectious particles produced by ZIKV-infected hNPCs with or without compound treatment by the Vero cell reinfection assay. (L) Heatmap analysis of mock-infected hNPCs treated with DMSO (mock); mock infected hNPCs treated with 25 μM HH (HH), mock-infected hNPCs treated with 15 μM AQ (AQ), ZIKV (MR766 strain, MOI=0.125) infected hNPCs treated with DMSO (ZIKV+DMSO); ZIKV-infected hNPCs treated with 25 μM HH (ZIKV+HH), and ZIKV-infected hNPCs treated with 15 μM AQ (ZIKV+AQ). […] (M and N) Immunocytochemistry analysis (M) and quantification of the infection rate (N) of hNPCs at 72 h after ZIKV (PRVABC59 strain) infection with or without drug treatment (n=6). Scale bars, 100 μm. p values were calculated by one-way repeated measures ANOVA with a Bonferroni test for multiple comparisons. *p<0.05, **p<0.01 and ***p<0.001.
(A) Scheme to evaluate the elimination of ZIKV. At day 0, hNPCs were infected with ZIKV for 2 h. After removal of ZIKV infection medium, hNPCs were treated with drug candidates. At day 3, the culture medium was changed to fresh medium without compounds. The cells were maintained in drug-free culture until day 6 and used for immunohistochemistry and qRT-PCR. (B and C) Inhibitory curve and IC50 of HH calculated based on the infection rate (B) and normalized cell viability (C) (n=6). (D and E) Immunocytochemistry analysis (D) and the quantification of infection rate, cell apoptosis rate, and total cell number (E) of hNPCs on day 3 and day 6. Cells was fixed and stained with cleaved Caspase-3 (CAS3), ZIKV E and DAPI. Scale bars, 100 μm. (F) qRT-PCR analysis to monitor the total ZIKV vRNA in the supernatant of hNPC cultures on day 6. Scale bars, 200 μm. (n=3). (G) Vero cell reinfection assay to monitor the infective ZIKV vRNA in the supernatant of hNPC cultures at day 6 after ZIKV infection. Scale bars, 200 μm. (n=3). (H) Quantification of ZIKV infectious particles produced by ZIKV-infected hNPCs at day 6 by the Vero cell reinfection assay. (I) hNPCs with or without ZIKV infection treated with HH maintain hNPC marker expression and differentiation capacity. hNPCs with or without ZIKV MR766 infection were treated with 25 μM HH or DMSO for 3 days and then stained for SOX2, NESTIN and with DAPI. hNPCs with or without ZIKV infection and treated with HH or DMSO for 3 days were differentiated to cortical neurons. The cortical neurons were then fixed and stained for MAP2, TUJ1 and with DAPI. Scale bars, 100 μm. (n=3). […]

SMILES | production of infectious ZIKV, Vero cell re-infection assay [1] | ZIKV induced growth arrest or apoptosis of hNPCs [2] | cell death rate and total cell number ([2]; ZIKV infected hNPCs, day 6) | ZIKV-induced loss of cell viability ([2]; dose-dependent, compound applied 2 h post infection) | expression of neural progenitor markers SOX2 and NESTIN and differentiation capacity ([2]; hNPCs with or without ZIKV infection treated for 3 days) | cytotoxicity to hNPCs ([2]; highest dose of 100 μM)
CCN(CC)Cc1cc(Nc2ccnc3cc(Cl)ccc23)ccc1O [AQ, amodiaquine dihydrochloride dihydrate] | significantly suppressed | blocked ZIKV induced growth arrest or apoptosis | – | – | – | –
CN1CCC2=C[C@H](O)[C@H]3OC(=O)c4cc5c(cc4[C@H]3[C@@H]21)OCO5 [HH, hippeastrine hydrobromide] | significantly suppressed | blocked ZIKV induced growth arrest or apoptosis | comparable to control mock infection conditions | successfully rescued | maintained the expression of neural progenitor markers | no obvious cytotoxicity

Reference: US11466020B2, “Compounds and compositions for inhibition and elimination of Zika infection and uses for same” (Cornell University, priority 2017, dated 2022)
